Reference: US20260070945A1, “MACROCYCLIC IMMUNOMODULATORS” (Bristol-Myers Squibb Company, priority 2022, published 2026)
*1 amine or outer side, *2 acyl side, *3 side chain or, on linkers, in order; H or OH if unused. Where a SMILES comes first, the peptide text is derived from it. Bridges are numbered along the chain shown (N, C = ends). [ ]: non-standard residue; d: D form. The star is where a group is joined. ξ: configuration not given here. Phe(3-CF3) = N[C@@H](Cc1cccc(C(F)(F)F)c1)C(=O)O; Ala(morpholin-4-yl) = N[C@@H](CN1CCOCC1)C(=O)O; Phe(4-COOH) = N[C@@H](Cc1ccc(C(=O)O)cc1)C(=O)O; Bip = N[C@@H](Cc1ccc(-c2ccccc2)cc1)C(=O)O; γGlu = O=C(O)[C@H](CCC(=O)[*:2])N[*:1]; NH(CH2)12COOH = O=C(O)CCCCCCCCCCCCN*; ξγGlu = O=C(O)C(CCC(=O)[*:2])N[*:1]; Val(3-OH) = CC(C)(O)[C@H](N)C(=O)O; Cha = N[C@@H](CC1CCCCC1)C(=O)O; Cit = NC(=O)NCCC[C@H](N)C(=O)O; Carboxymethyl = O=C(O)C*; NMeA = CN[C@@H](C)C(=O)O; Dab = NCC[C@H](N)C(=O)O; AEEA = NCCOCCOCC(=O)O

Biological target: T1, PD-1/PD-L1 interaction (PE-labeled human PD-L1-Ig binding to Jurkat cell line over-expressing human PD-1) (Homo sapiens, UniProt Q15116)
T1 construct: expressed in transfected cells; host or cells: Jurkat
T1 sequence (Q15116 25-288): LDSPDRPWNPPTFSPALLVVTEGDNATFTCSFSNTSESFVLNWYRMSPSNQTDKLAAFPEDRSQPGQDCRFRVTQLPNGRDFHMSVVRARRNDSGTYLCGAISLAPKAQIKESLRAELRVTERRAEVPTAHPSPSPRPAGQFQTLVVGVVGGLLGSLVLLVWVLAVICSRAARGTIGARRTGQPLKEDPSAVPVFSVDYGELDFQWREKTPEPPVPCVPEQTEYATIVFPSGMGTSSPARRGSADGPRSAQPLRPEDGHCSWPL
Experiment: Jurkat-PD-1 Cell Binding High-Content Screening Assay (CBA)
Settings: Jurkat-hPD-1 cells, PE-labeled PD-L1-Ig 20 nM final; read-out: Jurkat HPD1 PDL1 IC50
In short: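 Read-out: high-content imaging of cell-bound PE fluorescence, with Hoechst 33342 nuclear counterstain after paraformaldehyde fixation. Before labeled ligand (20 nM final, 1 h) was added, compound sat on the cells for 2 h at 37 °C in DMEM/10% FCS.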

Structure (SMILES)	IC50 [nM]
CC(=O)NCCCC[C@@H]1NC(=O)[C@H](C(C)(C)O)NC(=O)[C@H](CC2CCCCC2)NC(=O)[C@H](CCN)NC(=O)[C@@H](CC(C)C)NC(=O)[C@H](C)N(C)C(=O)[C@H](CCC(N)=O)NC(=O)[C@H](Cc2ccc(-c3ccccc3)cc2)NC(=O)[C@H](Cc2ccc(C(=O)O)cc2)NC(=O)[C@H](Cc2cccc(C(F)(F)F)c2)NC(=O)[C@H](CC(=O)O)NC(=O)[C@H](Cc2ccc(OCC(=O)O)cc2)NC(=O)[C@H](CN2CCOCC2)NC(=O)CSC[C@@H](C(=O)N[C@@H](CCN)C(=O)NCCOCCOCC(=O)N[C@@H](CCC(=O)NCCOCCOCC(=O)NCCCCCCCCCCCCC(=O)O)C(=O)O)NC1=O [Example 1174] ({CH2CO}-[Ala(morpholin-4-yl)]Y(Carboxymethyl)D[Phe(3-CF3)][Phe(4-COOH)][Bip]Q[NMeA][dL][Dab][Cha][Val(3-OH)]K(Ac)C[Dab][AEEA][γGlu][AEEA]-{NH(CH2)12COOH}; thioether N-14)	23.4
CC(C)C[C@H]1NC(=O)[C@H](C)N(C)C(=O)[C@H](CCCNC(N)=O)NC(=O)[C@H](Cc2ccc(-c3ccccc3)cc2)NC(=O)[C@H](Cc2ccc(C(=O)O)cc2)NC(=O)[C@H](Cc2cccc(C(F)(F)F)c2)NC(=O)[C@H](CC(=O)O)NC(=O)[C@H](Cc2ccc(OCC(=O)O)cc2)NC(=O)[C@H](CN2CCOCC2)NC(=O)CSC[C@@H](C(=O)N[C@@H](CCN)C(=O)NCCOCCOCC(=O)N[C@@H](CCC(=O)NCCOCCOCC(=O)NCCCCCCCCCCCCC(=O)O)C(=O)O)NC(=O)[C@H](CCC(=O)O)NC(=O)[C@H](C(C)C)NC(=O)[C@H](CC2CCCCC2)NC(=O)[C@H](CCN)NC1=O [Example 1176] ({CH2CO}-[Ala(morpholin-4-yl)]Y(Carboxymethyl)D[Phe(3-CF3)][Phe(4-COOH)][Bip][Cit][NMeA][dL][Dab][Cha]VEC[Dab][AEEA][γGlu][AEEA]-{NH(CH2)12COOH}; thioether N-14)	15.6
CC(C)C[C@H]1NC(=O)[C@H](C)N(C)C(=O)[C@H](Cc2ccc(C(=O)O)cc2)NC(=O)[C@H](Cc2ccc(-c3ccccc3)cc2)NC(=O)[C@H](Cc2ccc(C(=O)O)cc2)NC(=O)[C@H](Cc2cccc(C(F)(F)F)c2)NC(=O)[C@H](CC(=O)O)NC(=O)[C@H](Cc2ccc(OCC(=O)O)cc2)NC(=O)[C@H](CN2CCOCC2)NC(=O)CSC[C@@H](C(=O)N[C@@H](CCN)C(=O)NCCOCCOCC(=O)N[C@@H](CCC(=O)NCCOCCOCC(=O)NCCCCCCCCCCCCC(=O)O)C(=O)O)NC(=O)[C@H](CO)NC(=O)[C@H](C(C)(C)O)NC(=O)[C@H](CC2CCCCC2)NC(=O)[C@H](CCN)NC1=O [Example 1180] ({CH2CO}-[Ala(morpholin-4-yl)]Y(Carboxymethyl)D[Phe(3-CF3)][Phe(4-COOH)][Bip][Phe(4-COOH)][NMeA][dL][Dab][Cha][Val(3-OH)]SC[Dab][AEEA][γGlu][AEEA]-{NH(CH2)12COOH}; thioether N-14)	91.8
CC(C)C[C@H]1NC(=O)[C@H](C)N(C)C(=O)[C@H](CCC(N)=O)NC(=O)[C@H](Cc2ccc(-c3ccccc3)cc2)NC(=O)[C@H](Cc2ccc(C(=O)O)cc2)NC(=O)[C@H](Cc2cccc(C(F)(F)F)c2)NC(=O)[C@H](CC(=O)O)NC(=O)[C@H](Cc2ccc(OCC(=O)O)cc2)NC(=O)[C@H](Cc2ccc(C(=O)O)cc2)NC(=O)CSC[C@@H](C(=O)N[C@@H](CCN)C(=O)NCCOCCOCC(=O)N[C@@H](CCC(=O)NCCOCCOCC(=O)NCCCCCCCCCCCCC(=O)O)C(=O)O)NC(=O)[C@H](CC(=O)O)NC(=O)[C@H](C(C)(C)O)NC(=O)[C@H](CC2CCCCC2)NC(=O)[C@H](CCN)NC1=O [Example 1182] ({CH2CO}-[Phe(4-COOH)]Y(Carboxymethyl)D[Phe(3-CF3)][Phe(4-COOH)][Bip]Q[NMeA][dL][Dab][Cha][Val(3-OH)]DC[Dab][AEEA][γGlu][AEEA]-{NH(CH2)12COOH}; thioether N-14)	93
CC(C)C[C@H]1NC(=O)[C@H](C)N(C)C(=O)[C@H](CCC(N)=O)NC(=O)[C@H](Cc2ccc(-c3ccccc3)cc2)NC(=O)[C@H](Cc2ccc(C(=O)O)cc2)NC(=O)[C@H](Cc2cccc(C(F)(F)F)c2)NC(=O)[C@H](CC(=O)O)NC(=O)[C@H](Cc2ccc(OCC(=O)O)cc2)NC(=O)[C@H](Cc2ccc(C(=O)O)cc2)NC(=O)CSC[C@@H](C(=O)N[C@@H](CCN)C(=O)NCCOCCOCC(=O)N[C@@H](CCC(=O)NCCOCCOCC(=O)NCCCCCCCCCCCCC(=O)O)C(=O)O)NC(=O)[C@H](CCC(=O)O)NC(=O)[C@H](C(C)C)NC(=O)[C@H](CC2CCCCC2)NC(=O)[C@H](CCN)NC1=O [Example 1183] ({CH2CO}-[Phe(4-COOH)]Y(Carboxymethyl)D[Phe(3-CF3)][Phe(4-COOH)][Bip]Q[NMeA][dL][Dab][Cha]VEC[Dab][AEEA][γGlu][AEEA]-{NH(CH2)12COOH}; thioether N-14)	94.1
CC(C)C[C@H]1NC(=O)[C@H](C)N(C)C(=O)[C@H](CCC(N)=O)NC(=O)[C@H](Cc2ccc(-c3ccccc3)cc2)NC(=O)[C@H](Cc2ccc(C(=O)O)cc2)NC(=O)[C@H](Cc2cccc(C(F)(F)F)c2)NC(=O)[C@H](CC(=O)O)NC(=O)[C@H](Cc2ccc(OCC(=O)O)cc2)NC(=O)[C@H](Cc2ccc(C(=O)O)cc2)NC(=O)CSC[C@@H](C(=O)N[C@@H](CCN)C(=O)NCCOCCOCC(=O)N[C@@H](CCC(=O)NCCOCCOCC(=O)NCCCCCCCCCCCCC(=O)O)C(=O)O)NC(=O)[C@H](CO)NC(=O)[C@H](C(C)(C)O)NC(=O)[C@H](CC2CCCCC2)NC(=O)[C@H](CCN)NC1=O [Example 1184] ({CH2CO}-[Phe(4-COOH)]Y(Carboxymethyl)D[Phe(3-CF3)][Phe(4-COOH)][Bip]Q[NMeA][dL][Dab][Cha][Val(3-OH)]SC[Dab][AEEA][γGlu][AEEA]-{NH(CH2)12COOH}; thioether N-14)	44

More lines, now with the values ahead:

IC50 [nM]	Structure (SMILES)
48.8	CC(C)C[C@H]1NC(=O)[C@H](C)N(C)C(=O)[C@H](CCCNC(N)=O)NC(=O)[C@H](Cc2ccc(-c3ccccc3)cc2)NC(=O)[C@H](Cc2ccc(C(=O)O)cc2)NC(=O)[C@H](Cc2cccc(C(F)(F)F)c2)NC(=O)[C@H](CC(=O)O)NC(=O)[C@H](Cc2ccc(OCC(=O)O)cc2)NC(=O)[C@H](CN2CCOCC2)NC(=O)CSC[C@@H](C(=O)N[C@@H](CCN)C(=O)NCCOCCOCC(=O)N[C@@H](CCC(=O)NCCOCCOCC(=O)NCCCCCCCCCCCCC(=O)O)C(=O)O)NC(=O)[C@H](CC(=O)O)NC(=O)[C@H](C(C)(C)O)NC(=O)[C@H](CC2CCCCC2)NC(=O)[C@H](CCN)NC1=O [Example 1175] ({CH2CO}-[Ala(morpholin-4-yl)]Y(Carboxymethyl)D[Phe(3-CF3)][Phe(4-COOH)][Bip][Cit][NMeA][dL][Dab][Cha][Val(3-OH)]DC[Dab][AEEA][γGlu][AEEA]-{NH(CH2)12COOH}; thioether N-14)
27	CC(C)C[C@H]1NC(=O)[C@H](C)N(C)C(=O)[C@H](CCCNC(N)=O)NC(=O)[C@H](Cc2ccc(-c3ccccc3)cc2)NC(=O)[C@H](Cc2ccc(C(=O)O)cc2)NC(=O)[C@H](Cc2cccc(C(F)(F)F)c2)NC(=O)[C@H](CC(=O)O)NC(=O)[C@H](Cc2ccc(OCC(=O)O)cc2)NC(=O)[C@H](CN2CCOCC2)NC(=O)CSC[C@@H](C(=O)N[C@@H](CCN)C(=O)NCCOCCOCC(=O)N[C@@H](CCC(=O)NCCOCCOCC(=O)NCCCCCCCCCCCCC(=O)O)C(=O)O)NC(=O)[C@H](CO)NC(=O)[C@H](C(C)(C)O)NC(=O)[C@H](CC2CCCCC2)NC(=O)[C@H](CCN)NC1=O [Example 1177] ({CH2CO}-[Ala(morpholin-4-yl)]Y(Carboxymethyl)D[Phe(3-CF3)][Phe(4-COOH)][Bip][Cit][NMeA][dL][Dab][Cha][Val(3-OH)]SC[Dab][AEEA][γGlu][AEEA]-{NH(CH2)12COOH}; thioether N-14)
12.4	CC(=O)NCCCC[C@@H]1NC(=O)[C@H](C(C)(C)O)NC(=O)[C@H](CC2CCCCC2)NC(=O)[C@H](CCN)NC(=O)[C@@H](CC(C)C)NC(=O)[C@H](C)N(C)C(=O)[C@H](CCCNC(N)=O)NC(=O)[C@H](Cc2ccc(-c3ccccc3)cc2)NC(=O)[C@H](Cc2ccc(C(=O)O)cc2)NC(=O)[C@H](Cc2cccc(C(F)(F)F)c2)NC(=O)[C@H](CC(=O)O)NC(=O)[C@H](Cc2ccc(OCC(=O)O)cc2)NC(=O)[C@H](CN2CCOCC2)NC(=O)CSC[C@@H](C(=O)N[C@@H](CCN)C(=O)NCCOCCOCC(=O)NC(CCC(=O)NCCOCCOCC(=O)NCCCCCCCCCCCCC(=O)O)C(=O)O)NC1=O (stereo partly drawn) [Example 1178] ({CH2CO}-[Ala(morpholin-4-yl)]Y(Carboxymethyl)D[Phe(3-CF3)][Phe(4-COOH)][Bip][Cit][NMeA][dL][Dab][Cha][Val(3-OH)]K(Ac)C[Dab][AEEA][ξγGlu][AEEA]-{NH(CH2)12COOH}; thioether N-14)
48.5	COC[C@@H]1NC(=O)CSC[C@@H](C(=O)N[C@@H](CCN)C(=O)NCCOCCOCC(=O)N[C@@H](CCC(=O)NCCOCCOCC(=O)NCCCCCCCCCCCCC(=O)O)C(=O)O)NC(=O)[C@H](CO)NC(=O)[C@H](C(C)(C)O)NC(=O)[C@H](CC2CCCCC2)NC(=O)[C@H](CCN)NC(=O)[C@@H](CC(C)C)NC(=O)[C@H](C)N(C)C(=O)[C@H](CCCNC(N)=O)NC(=O)[C@H](Cc2ccc(-c3ccccc3)cc2)NC(=O)[C@H](Cc2ccc(C(=O)O)cc2)NC(=O)[C@H](Cc2cccc(C(F)(F)F)c2)NC(=O)[C@H](CC(=O)O)NC(=O)[C@H](Cc2ccc(OCC(=O)O)cc2)NC1=O [Example 1181] ({CH2CO}-S(Me)Y(Carboxymethyl)D[Phe(3-CF3)][Phe(4-COOH)][Bip][Cit][NMeA][dL][Dab][Cha][Val(3-OH)]SC[Dab][AEEA][γGlu][AEEA]-{NH(CH2)12COOH}; thioether N-14)
